Source: ChEMBL document CHEMBL1149429, “Privileged structure-based quinazolinone natural product-templated libraries: identification of novel tubulin polymerization inhibitors” (Bioorg Med Chem Lett, 2006)
The source made the active and inactive calls. No cut-off for these calls is given here.

How the values were obtained:
[1] = system: MDA-MB-231; assay: Antiproliferative activity against MDA-MB-231 cell line by MTS assay; type: functional, cell-based; settings: Homo sapiens
[2] = system: A549; assay: Antiproliferative activity against A549 cell line by MTS assay; type: functional, cell-based; settings: Homo sapiens
[3] = system: DU-145; assay: Antiproliferative activity against DU145 cell line by MTS assay; type: functional, cell-based; settings: Homo sapiens
[4] = target: Tubulin (Homo sapiens) (UniProt P68371+Q9H4B7+P0DPH7+P68366+Q13509+Q71U36+P04350+Q3ZCM7+P07437+P68363+Q9BQE3+Q6PEY2+Q13885+Q9BVA1+Q9BUF5); assay: Inhibitory activity against tubulin polymerization; type: protein-complex assay
[5] = target: Tubulin; assay: Effect on induction of mitotic arrest by phosphohistone H3 (pH3) assay; type: functional
[6] = system: SF-268; assay: Antiproliferative activity against SF268 cell line by MTS assay; type: functional, cell-based; settings: Homo sapiens
[7] = system: NCI-H460; assay: Antiproliferative activity against NCI-H460 cell line by MTS assay; type: functional, cell-based; settings: Homo sapiens
[8] = system: HMEC; assay: Antiproliferative activity against HMEC cell line by MTS assay; type: functional, cell-based; settings: Homo sapiens

Row | IC50 [1] [µM] | IC50 [2] [µM] | IC50 [3] [µM] | Activity [4] | EC50 [5] [µM] | IC50 [7] [µM] | SMILES | IC50 [6] [µM] | IC50 [8] [µM]
1 | 1.3 | 0.69 | 0.51 | Active | 0.54 | 0.33 | COc1cc(/C=C2\CCCn3c2nc2c(OC)cccc2c3=O)cc(OC)c1O | 0.79 | > 20
2 | > 20 | 9.43 | 14.2 | Active | – | 3.91 | COc1cc(/C=C2\CCCn3c2nc2ccc(F)cc2c3=O)cc(OC)c1O | 14.1 | > 20
3 | > 20 | > 20 | 10.3 | Active | – | 3.71 | COc1ccc2nc3n(c(=O)c2c1)CCC/C3=C\c1cc(OC)c(O)c(OC)c1 | > 20 | > 20
4 | > 20 | > 20 | 14.7 | Active | – | 3.2 | COc1cc(/C=C2\CCCn3c2nc2ccc(C)cc2c3=O)cc(OC)c1O | 11.5 | > 20
5 | 11.2 | 3.17 | 2.63 | Active | 1.64 | 1.5 | COc1cc(/C=C2\CCCn3c2nc2c(C)cccc2c3=O)cc(OC)c1O | 3.48 | > 20
6 | 2.09 | 0.55 | 0.79 | Active | 0.26 | 0.24 | COc1cc(/C=C2\CCCn3c2nc2c(C)cc(C)cc2c3=O)cc(OC)c1O | 0.83 | > 20
7 | > 20 | > 20 | > 20 | Active | – | 14.9 | COc1cc(/C=C2\CCCn3c2nc2ccc(O)cc2c3=O)cc(OC)c1O | > 20 | > 20
8 | > 20 | 10.6 | 10.3 | Active | 10.6 | 4.31 | COc1cc(/C=C2\CCCn3c2nc2ccc(I)cc2c3=O)cc(OC)c1O | 11.2 | > 20
9 | 7.72 | 5.49 | 3.11 | Active | 1.16 | 1.36 | COc1cc(/C=C2\CCCn3c2nc2c(O)cccc2c3=O)cc(OC)c1O | 4.76 | > 20
10 | > 20 | > 20 | 18.3 | Active | – | 8.63 | COc1cc(/C=C2\CCCn3c2nc2ccc(Cl)cc2c3=O)cc(OC)c1O | 18.6 | > 20
11 | > 20 | 11.7 | 8.47 | Active | 2.38 | 1.98 | COc1cc(/C=C2\CCCn3c2nc2ccc(Br)cc2c3=O)cc(OC)c1O | 6.72 | > 20
12 | – | 0.013 | – | – | 0.031 | 0.012 | CC(=O)O[C@H]1C(=O)[C@@]2(C)[C@H]([C@H](OC(=O)c3ccccc3)[C@]3(O)C[C@H](OC(=O)[C@H](O)[C@@H](NC(=O)c4ccccc4)c4ccccc4)C(C)=C1C3(C)C)[C@]1(OC(C)=O)CO[C@@H]1C[C@@H]2O [PACLITAXEL] | – | –
